Laboratory results reported in ChEMBL document CHEMBL3758095, “Preliminary evaluation of fluoro-pegylated benzyloxybenzenes for quantification of β-amyloid plaques by positron emission tomography” (Eur J Med Chem, 2015).
Values belong to the molecule of their own block, whether it stands above or below them. The source made the active and inactive calls. The calls are words filed in the database; no cut-off is given here.

Assays:
[1] = Metabolic stability in ICR mouse plasma assessed as compound remaining at 35 to 45 Mbq, iv measured at 30 mins by HPLC analysis; assay type: ADME, organism-based; conditions: read-out: Stability
[2] = Metabolic stability in ICR mouse plasma assessed as compound remaining at 35 to 45 Mbq, iv measured at 60 mins by HPLC analysis; assay type: ADME, organism-based; conditions: read-out: Stability
Brain [3] = test: Biodistribution in iv dosed ICR mouse brain measured at 2 mins; assay type: ADME, organism-based; conditions: in vivo
Stomach [4] = test: Biodistribution in iv dosed ICR mouse stomach assessed per organ measured at 2 mins; assay type: ADME, organism-based; conditions: in vivo
Intestine [5] = test: Biodistribution in iv dosed ICR mouse intestine assessed per organ measured at 2 mins; assay type: ADME, organism-based; conditions: in vivo
Liver [6] = test: Biodistribution in iv dosed ICR mouse liver measured at 10 mins; assay type: ADME, organism-based; conditions: in vivo
Stomach [7] = test: Biodistribution in iv dosed ICR mouse stomach assessed per organ measured at 10 mins; assay type: ADME, organism-based; conditions: in vivo
Intestine [8] = test: Biodistribution in iv dosed ICR mouse intestine assessed per organ measured at 10 mins; assay type: ADME, organism-based; conditions: in vivo
Stomach [9] = test: Biodistribution in iv dosed ICR mouse stomach assessed per organ measured at 30 mins; assay type: ADME, organism-based; conditions: in vivo, 0.5 h
Intestine [10] = test: Biodistribution in iv dosed ICR mouse intestine assessed per organ measured at 30 mins; assay type: ADME, organism-based; conditions: in vivo, 0.5 h
Stomach [11] = test: Biodistribution in iv dosed ICR mouse stomach assessed per organ measured at 60 mins; assay type: ADME, organism-based; conditions: in vivo, 1 h
Intestine [12] = test: Biodistribution in iv dosed ICR mouse intestine assessed per organ measured at 60 mins; assay type: ADME, organism-based; conditions: in vivo, 1 h
[13] = Partition coefficient, log D of the compound; assay type: physicochemical; conditions: octanol/water
[14] = Metabolic stability in ICR mouse brain assessed as compound remaining at 35 to 45 Mbq, iv measured at 2 mins by HPLC analysis; assay type: ADME, organism-based; conditions: read-out: Stability
[15] = Metabolic stability in ICR mouse brain assessed as compound remaining at 35 to 45 Mbq, iv measured at 30 mins by HPLC analysis; assay type: ADME, organism-based; conditions: read-out: Stability
[16] = Metabolic stability in ICR mouse brain assessed as compound remaining at 35 to 45 Mbq, iv measured at 60 mins by HPLC analysis; assay type: ADME, organism-based; conditions: read-out: Stability
[17] = Metabolic stability in ICR mouse plasma assessed as compound remaining at 35 to 45 Mbq, iv measured at 2 mins by HPLC analysis; assay type: ADME, organism-based; conditions: read-out: Stability
[18] = Metabolic stability in ICR mouse liver assessed as compound remaining at 35 to 45 Mbq, iv measured at 2 mins by HPLC analysis; assay type: ADME, organism-based; conditions: read-out: Stability
[19] = Metabolic stability in ICR mouse liver assessed as compound remaining at 35 to 45 Mbq, iv measured at 30 mins by HPLC analysis; assay type: ADME, organism-based; conditions: read-out: Stability
[20] = Metabolic stability in ICR mouse liver assessed as compound remaining at 35 to 45 Mbq, iv measured at 60 mins by HPLC analysis; assay type: ADME, organism-based; conditions: read-out: Stability
[21] = Metabolic stability in ICR mouse feces assessed as compound remaining at 35 to 45 Mbq, iv measured at 30 mins by HPLC analysis; assay type: ADME, organism-based; conditions: faeces, read-out: Stability
Brain [22] = test: Ratio of drug level in iv dosed ICR mouse brain at 2 to 60 mins; assay type: ADME, organism-based; conditions: in vivo
[23] = target: T1, Amyloid-beta precursor protein (Homo sapiens, UniProt P05067); test: Displacement of [125I]BOB-4 from Amyloid beta (1 to 42) (unknown origin)
[24] = target: T1, Amyloid-beta precursor protein; test: Binding affinity to amyloid beta plaques in white matter of alzheimer's disease patient brain by DANIR 3b staining based autoradiographic analysis; assay type: tissue-based; conditions: tested as the 18F-labelled form
Mus musculus [25] = species on record: Mus musculus; test: Binding affinity to amyloid beta plaques in white matter of C57BL6 APPswe/PSEN1 Tg mouse brain by DANIR 3b staining based autoradiography analysis; assay type: tissue-based; conditions: tested as the 18F-labelled form
[26] = target: T1, Amyloid-beta precursor protein; test: Binding affinity to amyloid beta plaques in alzheimer's disease patient cerebral cortex by DANIR 3b staining based autoradiographic analysis; assay type: tissue-based; conditions: tested as the 18F-labelled form
Mus musculus [27] = species on record: Mus musculus; test: Binding affinity to amyloid beta plaques in C57BL6 APPswe/PSEN1 Tg mouse cerebral cortex by DANIR 3b staining based autoradiographic analysis; assay type: tissue-based; conditions: tested as the 18F-labelled form
[28] = target: T1, Amyloid-beta precursor protein; test: Binding affinity to amyloid beta plaques in healthy human brain by DANIR 3b staining based autoradiographic analysis; conditions: tested as the 18F-labelled form
Mus musculus [29] = species on record: Mus musculus; test: Binding affinity to amyloid beta plaques in C57BL6 mouse brain by DANIR 3b staining based autoradiographic analysis; assay type: tissue-based; conditions: tested as the 18F-labelled form
Plasma = test: Retention time of the compound in ICR mouse plasma at 35 to 45 Mbq, iv by HPLC analysis; assay type: ADME, organism-based
Liver [30] = test: Retention time of the compound in ICR mouse liver at 35 to 45 Mbq, iv by HPLC analysis; assay type: ADME, organism-based
Brain [31] = test: Ratio of drug level in CD1 mouse brain at 370 kBq measured at 2 to 60 mins; assay type: ADME; conditions: in vivo
Mus musculus [32] = test: In vivo binding affinity to amyloid beta plaques in C57BL6 Appswe/PSEN1 Tg mouse brain cortex at 1 mCi, iv after 20 mins by DANIR 3b staining based autoradiographic analysis; assay type: functional, organism-based; conditions: tested as the 18F-labelled form
Mus musculus [33] = test: In vivo binding affinity to amyloid beta plaques in C57BL6 Appswe/PSEN1 Tg mouse hippocampus at 1 mCi, iv after 20 mins by DANIR 3b staining based autoradiographic analysis; assay type: functional, organism-based; conditions: tested as the 18F-labelled form
Mus musculus [34] = test: In vivo binding affinity to amyloid beta plaques in C57BL6 Appswe/PSEN1 Tg mouse cerebellum at 1 mCi, iv after 20 mins by DANIR 3b staining based autoradiographic analysis; assay type: functional, organism-based; conditions: tested as the 18F-labelled form
Mus musculus [35] = test: In vivo binding affinity to amyloid beta in wild type C57BL6 mouse brain cortex at 1 mCi, iv after 20 mins by DANIR 3b staining based autoradiographic analysis; assay type: functional, organism-based; conditions: tested as the 18F-labelled form
Mus musculus [36] = test: In vivo binding affinity to amyloid beta in wild type C57BL6 mouse hippocampus at 1 mCi, iv after 20 mins by DANIR 3b staining based autoradiographic analysis; assay type: functional, organism-based; conditions: tested as the 18F-labelled form
Mus musculus [37] = test: In vivo binding affinity to amyloid beta in wild type C57BL6 mouse cerebellum at 1 mCi, iv after 20 mins by DANIR 3b staining based autoradiographic analysis; assay type: functional, organism-based; conditions: tested as the 18F-labelled form

T1 sequence (P05067 whole entry): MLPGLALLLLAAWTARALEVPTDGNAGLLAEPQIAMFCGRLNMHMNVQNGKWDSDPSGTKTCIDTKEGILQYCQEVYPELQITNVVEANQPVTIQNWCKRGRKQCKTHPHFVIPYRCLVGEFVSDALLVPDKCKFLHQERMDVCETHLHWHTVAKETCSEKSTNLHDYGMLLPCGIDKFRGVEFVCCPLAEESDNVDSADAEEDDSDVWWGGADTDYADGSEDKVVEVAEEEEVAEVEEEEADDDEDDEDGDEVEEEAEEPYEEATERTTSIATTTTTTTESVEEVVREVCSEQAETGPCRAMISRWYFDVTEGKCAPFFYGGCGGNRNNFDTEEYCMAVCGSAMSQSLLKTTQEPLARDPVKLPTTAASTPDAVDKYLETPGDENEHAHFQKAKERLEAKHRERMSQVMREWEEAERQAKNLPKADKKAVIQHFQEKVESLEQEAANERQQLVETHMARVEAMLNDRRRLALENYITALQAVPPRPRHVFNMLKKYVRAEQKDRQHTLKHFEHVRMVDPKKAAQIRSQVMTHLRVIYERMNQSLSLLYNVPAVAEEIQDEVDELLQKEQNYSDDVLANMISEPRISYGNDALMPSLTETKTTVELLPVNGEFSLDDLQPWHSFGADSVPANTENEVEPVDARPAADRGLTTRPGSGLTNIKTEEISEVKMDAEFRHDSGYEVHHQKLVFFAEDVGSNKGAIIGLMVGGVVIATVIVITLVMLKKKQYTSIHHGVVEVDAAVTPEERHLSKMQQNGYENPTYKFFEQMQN

SMILES: COc1ccc(OCc2ccc(OCC[18F])cc2)cc1
Drug uptake (Brain [3]): 7.54 % ID/g
Drug uptake (Stomach [4]): 1.32 %ID
Drug uptake (Intestine [5]): 7.31 %ID
Drug uptake (Liver [6]): 4.97 % ID/g
Drug uptake (Stomach [7]): 0.96 %ID
Drug uptake (Intestine [8]): 4.83 %ID
Drug uptake (Stomach [9]): 1.29 %ID
Drug uptake (Intestine [10]): 6.85 %ID
Drug uptake (Stomach [11]): 0.98 %ID
Drug uptake (Intestine [12]): 10.75 %ID
logD [13]: 3.05

SMILES: COc1ccc(COc2ccc(OCC[18F])cc2)cc1
Drug uptake (Brain [3]): 9.95 % ID/g
Drug uptake (Stomach [4]): 1.22 %ID
Drug uptake (Intestine [5]): 7.09 %ID
Drug uptake (Liver [6]): 7.47 % ID/g
Drug uptake (Stomach [7]): 1.08 %ID
Drug uptake (Intestine [8]): 4.41 %ID
Drug uptake (Stomach [9]): 0.78 %ID
Drug uptake (Intestine [10]): 7.66 %ID
Drug uptake (Stomach [11]): 0.77 %ID
Drug uptake (Intestine [12]): 13 %ID
logD [13]: 3.65

SMILES: COc1ccc(OCc2ccc(OCCF)cc2)cc1
Ki [23]: 153 nM
inhibition [23]: Dose-dependent effect

SMILES: CN(C)c1ccc(COc2ccc(OCC[18F])cc2)cc1
Drug uptake (Brain [3]): 4.51 % ID/g
Drug uptake (Stomach [4]): 0.92 %ID
Drug uptake (Intestine [5]): 5.52 %ID
Drug uptake (Liver [6]): 3.23 % ID/g
Drug uptake (Stomach [7]): 0.54 %ID
Drug uptake (Intestine [8]): 3.12 %ID
Drug uptake (Stomach [9]): 0.37 %ID
Drug uptake (Intestine [10]): 2.35 %ID
Drug uptake (Stomach [11]): 0.22 %ID
Drug uptake (Intestine [12]): 1.72 %ID
logD [13]: 3.11
remaining at 2 min [14]: 76.7%
remaining at 0.5 h [15]: 20.6%
remaining at 1 h [16]: 16.7%
remaining at 2 min [17]: 10.8%
remaining at 2 min [18]: 22.6%
remaining at 0.5 h [19]: 8.4%
remaining at 1 h [20]: 10.6%
remaining at 0.5 h [21]: 14.6%
Retention_time (Plasma): 9.1 min
Retention_time (Liver [30]): 9.1 min

SMILES: CN(C)c1ccc(COc2ccc(OCCOCCF)cc2)cc1
Ki [23]: 191 nM
inhibition [23]: Dose-dependent effect

SMILES: COc1ccc(COc2ccc(OCCOCCOCC[18F])cc2)cc1
Drug uptake (Brain [3]): 9.71 % ID/g
Drug uptake (Stomach [4]): 1.53 %ID
Drug uptake (Intestine [5]): 6.3 %ID
Drug uptake (Liver [6]): 11.16 % ID/g
Drug uptake (Stomach [7]): 1.1 %ID
Drug uptake (Intestine [8]): 6.18 %ID
Drug uptake (Stomach [9]): 1.52 %ID
Drug uptake (Intestine [10]): 16.43 %ID
Drug uptake (Stomach [11]): 0.9 %ID
Drug uptake (Intestine [12]): 26.12 %ID
logD [13]: 3.04

SMILES: CN(C)c1ccc(OCc2ccc(OCCF)cc2)cc1
Activity [24]: inactive
Activity (Mus musculus [25]): inactive
Ki [23]: 21 nM
inhibition [23]: Dose-dependent effect
Activity [26]: Active
Activity (Mus musculus [27]): Active
Activity (Mus musculus [32]): Active
Activity (Mus musculus [33]): Active
Activity (Mus musculus [34]): Active
Activity (Mus musculus [35]): inactive
Activity (Mus musculus [36]): inactive
Activity (Mus musculus [37]): inactive
Activity [28]: inactive
Activity (Mus musculus [29]): inactive

Next, values leading:

remaining at 0.5 h [1]: 5.8%
remaining at 1 h [2]: 5.1%
Drug uptake (Brain [3]): 9.14 % ID/g
Drug uptake (Stomach [4]): 2.48 %ID
Drug uptake (Intestine [5]): 5.49 %ID
Drug uptake (Liver [6]): 6.38 % ID/g
Drug uptake (Stomach [7]): 4.11 %ID
Drug uptake (Intestine [8]): 5.16 %ID
Drug uptake (Stomach [9]): 4.69 %ID
Drug uptake (Intestine [10]): 5.63 %ID
Drug uptake (Stomach [11]): 3.58 %ID
Drug uptake (Intestine [12]): 6.71 %ID
logD [13]: 2.75
remaining at 2 min [14]: 95.4%
remaining at 0.5 h [15]: 31.6%
remaining at 1 h [16]: 14.8%
remaining at 2 min [17]: 56.5%
remaining at 2 min [18]: 63.5%
remaining at 0.5 h [19]: 9.2%
remaining at 1 h [20]: 4.4%
remaining at 0.5 h [21]: 22.7%
Ratio (Brain [22]): 5.1
SMILES: CN(C)c1ccc(OCc2ccc(OCC[18F])cc2)cc1

Ki [23]: 438 nM
inhibition [23]: Dose-dependent effect
SMILES: COc1ccc(COc2ccc(OCCOCCF)cc2)cc1

Ki [23]: 770 nM
inhibition [23]: Dose-dependent effect
SMILES: COc1ccc(COc2ccc(OCCOCCOCCF)cc2)cc1

Ki [23]: 358 nM
inhibition [23]: Dose-dependent effect
SMILES: CN(C)c1ccc(COc2ccc(OCCOCCOCCF)cc2)cc1

Activity [24]: inactive
Activity (Mus musculus [25]): inactive
Ki [23]: 25.7 nM
inhibition [23]: Dose-dependent effect
Activity [26]: Active
Activity (Mus musculus [27]): Active
Activity [28]: inactive
Activity (Mus musculus [29]): inactive
SMILES: CN(C)c1ccc(COc2ccc(OCCF)cc2)cc1

inhibition [23]: Dose-dependent effect
SMILES: CN(C)c1ccc(-c2cn3cc(I)ccc3n2)cc1

inhibition [23]: Dose-dependent effect
SMILES: CNc1ccc(-c2nc3ccc(O)cc3s2)cc1

Ratio (Brain [31]): 3.9
SMILES: CNc1ccc(/C=C/c2ccc(OCCOCCOCC[18F])nc2)cc1 [FLORBETAPIR F 18]

Ki [23]: 11.4 nM
inhibition [23]: Dose-dependent effect
SMILES: CNc1ccc(/C=C/c2ccc(OCCOCCOCCF)nc2)cc1 [FLORBETAPIR]

Ki [23]: 119 nM
inhibition [23]: Dose-dependent effect
SMILES: COc1ccc(COc2ccc(OCCF)cc2)cc1
